Reference: PMC10794144, “A novel antibiotic class targeting the lipopolysaccharide transporter” (Nature, 2024)
Where two headings read alike, the source gives them in different places.

Test system: A. baumannii
Assay: microbe, parasite or virus in culture
Procedure, shortened: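 Broth microdilution per CLSI M07/M100, with inocula diluted from a 0.5 McFarland suspension in CAMHB, or LB for A. baylyi. MIC was read as the lowest concentration inhibiting growth by eye or beyond which OD600 stopped decreasing.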

CN1C(=O)[C@H](CCCCN)NC(=O)[C@H](CCCN)NCc2cccnc2Sc2c(Cl)ccc(Cl)c2CNC(=O)[C@@H]1Cc1c[nH]c2ccccc12 [RO7075573]
0.25 µg/mL: MIC 80% (ATCC 19606, Study LGC282160) | MIC 100% (ATCC 19606, Study LGC282160) | MIC 80% (ATCC 19606, Study LGC284879) | MIC 100% (ATCC 19606, Study LGC284879) | MIC 100% (ATCC 19606, Study LGC285582) | MIC 100% (ATCC 19606, Study LGC293598) | MIC 80% (ATCC 19606, Study LGC295147) | MIC 100% (ATCC 19606, Study LGC295147) | MIC 100% (ATCC 19606, Study LGC296813) | MIC 100% (ATCC 19606, Study LGC301026) | MIC 80% (ATCC 19606, Study ROC010) | MIC 100% (ATCC 19606, Study ROC012) | MIC (Acinetobacter baumannii, ROB08703, CAMHB, MCPs read at 80% inhibition) | MIC 100% (ROB08701, Study LGC281440) | MIC 80% (ROB08701, Study LGC284879) | MIC 100% (ROB08701, Study LGC293598) | MIC 100% (ROB08701, Study LGC294355) | MIC 100% (ROB08701, Study LGC296813) | MIC 80% (ROB08701, Study ROC010) | MIC 80% (ROB08702, Study ROC010) | MIC 80% (ROB08703, Study LGC281440) | MIC 80% (ROB08703, Study LGC282160) | MIC 80% (ROB08703, Study LGC285582) | MIC 80% (ROB08703, Study LGC286210) | MIC 80% (ROB08703, Study LGC295147) | MIC 80% (ROB08703, Study LGC301026) | MIC 80% (ROB08703, Study LGC308175) | MIC 80% (ROB08703, Study ROC012) | MIC 80% (ROB08704, Study LGC282160) | MIC 80% (ROB08704, Study LGC285582) | MIC 80% (ROB08704, Study LGC308175) | MIC 80% (ROB08704, Study ROC012)
≤ 0.06 µg/mL: MIC (Acinetobacter baumannii, ATCC17978, ATCC 17978, CAMHB, one replicate, MCPs read at 80% growth inhibition) | MIC (Acinetobacter baumannii, ROB08705, CAMHB, MCPs read at 80% inhibition)
2 µg/mL: MIC (Acinetobacter baumannii, read-out: MIC read at 80% growth inhibition, CAMHB) | MIC 80% (ROB08702, Study LGC282160)
1 µg/mL: MIC 100% (ROB08701, Study LGC282160) | MIC 100% (ROB08704, Study ROC010)
> 64 µg/mL: MIC (Acinetobacter baumannii, read-out: MIC read at 100% growth inhibition, CAMHB)
≤0.06 µg/mL: MIC 80% (ATCC 17978, Study LGC308175) | MIC 100% (ATCC 17978, Study LGC308175) | MIC 80% (ROB08705, Study LGC281440) | MIC 100% (ROB08705, Study LGC281440) | MIC 80% (ROB08705, Study LGC284879) | MIC 80% (ROB08705, Study LGC285582) | MIC 100% (ROB08705, Study LGC285582) | MIC 80% (ROB08705, Study LGC286210) | MIC 100% (ROB08705, Study LGC286210) | MIC 80% (ROB08705, Study LGC293598)
64 µg/mL: MIC 100% (ROB08701, Study LGC285582) | MIC 100% (ROB08701, Study LGC286210) | MIC 100% (ROB08701, Study LGC299544) | MIC 100% (ROB08701, Study LGC301026) | MIC 100% (ROB08701, Study LGC308175) | MIC 100% (ROB08702, Study LGC295147) | MIC 100% (ROB08702, Study LGC296813) | MIC 100% (ROB08702, Study LGC299544) | MIC 100% (ROB08702, Study LGC301026) | MIC 100% (ROB08702, Study LGC308175) | MIC 100% (ROB08702, Study ROC012) | MIC 100% (ROB08703, Study LGC282160) | MIC 100% (ROB08703, Study LGC285582) | MIC 100% (ROB08703, Study LGC286210) | MIC 100% (ROB08703, Study LGC295147) | MIC 100% (ROB08703, Study LGC296813) | MIC 100% (ROB08703, Study LGC299544) | MIC 100% (ROB08703, Study LGC301026) | MIC 100% (ROB08703, Study LGC308175) | MIC 100% (ROB08703, Study ROC012) | MIC 100% (ROB08704, Study LGC282160) | MIC 100% (ROB08704, Study LGC285582) | MIC 100% (ROB08704, Study LGC295147) | MIC 100% (ROB08704, Study LGC299544) | MIC 100% (ROB08704, Study LGC301026)
0.5 µg/mL: MIC 100% (ATCC 19606, Study ROC010) | MIC90 (Acinetobacter baumannii, 10 MDR isolates, CAMHB, MCPs read at 80% growth inhibition) | MIC (Acinetobacter baumannii, ROB08704, CAMHB, MCPs read at 80% inhibition) | MIC (Acinetobacter baumannii, ROB08706, CAMHB, MCPs read at 80% inhibition) | MIC 100% (ROB08701, Study LGC284879) | MIC 80% (ROB08701, Study LGC301026) | MIC 100% (ROB08701, Study ROC010) | MIC 80% (ROB08703, Study LGC284879) | MIC 80% (ROB08703, Study LGC296813) | MIC 80% (ROB08703, Study LGC299544) | MIC 80% (ROB08703, Study ROC010) | MIC 100% (ROB08703, Study ROC010) | MIC 80% (ROB08704, Study LGC281440) | MIC 80% (ROB08704, Study LGC284879) | MIC 80% (ROB08704, Study LGC286210) | MIC 80% (ROB08704, Study LGC293598) | MIC 80% (ROB08704, Study LGC294355) | MIC 80% (ROB08704, Study LGC295147) | MIC 80% (ROB08704, Study LGC296813) | MIC 80% (ROB08704, Study LGC299544) | MIC 80% (ROB08704, Study LGC301026) | MIC 80% (ROB08704, Study ROC010)
16 µg/mL: MIC 100% (ROB08703, Study LGC281440) | MIC 100% (ROB08704, Study LGC281440)
>64 µg/mL: MIC 100% (ROB08702, Study LGC281440) | MIC 100% (ROB08702, Study LGC282160) | MIC 100% (ROB08702, Study LGC284879) | MIC 100% (ROB08702, Study LGC285582) | MIC 100% (ROB08702, Study LGC286210) | MIC 100% (ROB08702, Study LGC293598) | MIC 100% (ROB08702, Study LGC294355) | MIC 100% (ROB08703, Study LGC284879) | MIC 100% (ROB08703, Study LGC293598) | MIC 80% (ROB08703, Study LGC294355) | MIC 100% (ROB08703, Study LGC294355) | MIC 100% (ROB08704, Study LGC284879) | MIC 100% (ROB08704, Study LGC293598) | MIC 100% (ROB08704, Study LGC294355)
0.12 µg/mL: MIC 80% (ATCC 17978, Study LGC301026) | MIC 100% (ATCC 17978, Study LGC301026) | MIC 80% (ATCC 19606, Study LGC281440) | MIC 100% (ATCC 19606, Study LGC281440) | MIC 80% (ATCC 19606, Study LGC285582) | MIC 80% (ATCC 19606, Study LGC286210) | MIC 100% (ATCC 19606, Study LGC286210) | MIC 80% (ATCC 19606, Study LGC293598) | MIC 80% (ATCC 19606, Study LGC294355) | MIC 100% (ATCC 19606, Study LGC294355) | MIC 80% (ATCC 19606, Study LGC296813) | MIC 80% (ATCC 19606, Study LGC299544) | MIC 100% (ATCC 19606, Study LGC299544) | MIC 80% (ATCC 19606, Study LGC301026) | MIC 80% (ATCC 19606, Study LGC308175) | MIC 100% (ATCC 19606, Study LGC308175) | MIC 80% (ATCC 19606, Study ROC012) | MIC (Acinetobacter baumannii, ATCC17978, ATCC 17978, CAMHB, MCPs read at 80% inhibition) | MIC (Acinetobacter baumannii, ATCC19606, ATCC 19606, CAMHB, MCPs read at 80% growth inhibition) | MIC (Acinetobacter baumannii, ATCC19606, ATCC 19606, CAMHB, MCPs read at 80% inhibition) | MIC (Acinetobacter baumannii, ROB08701, CAMHB, MCPs read at 80% inhibition) | MIC (Acinetobacter baumannii, ROB08702, CAMHB, MCPs read at 80% inhibition) | MIC (Acinetobacter baumannii, ROB08707, CAMHB, MCPs read at 80% inhibition) | MIC (Acinetobacter baumannii, ROB08708, CAMHB, MCPs read at 80% inhibition) | MIC (Acinetobacter baumannii, ROB08709, CAMHB, MCPs read at 80% inhibition) | MIC (Acinetobacter baumannii, ROB08710, CAMHB, MCPs read at 80% inhibition) | MIC 80% (ROB08701, Study LGC281440) | MIC 80% (ROB08701, Study LGC282160) | MIC 80% (ROB08701, Study LGC285582) | MIC 80% (ROB08701, Study LGC286210) | MIC 80% (ROB08701, Study LGC293598) | MIC 80% (ROB08701, Study LGC294355) | MIC 80% (ROB08701, Study LGC295147) | MIC 100% (ROB08701, Study LGC295147) | MIC 80% (ROB08701, Study LGC296813) | MIC 80% (ROB08701, Study LGC299544) | MIC 80% (ROB08701, Study LGC308175) | MIC 80% (ROB08701, Study ROC012) | MIC 80% (ROB08702, Study LGC281440) | MIC 80% (ROB08702, Study LGC284879) | MIC 80% (ROB08702, Study LGC285582) | MIC 80% (ROB08702, Study LGC286210) | MIC 80% (ROB08702, Study LGC293598) | MIC 80% (ROB08702, Study LGC294355) | MIC 80% (ROB08702, Study LGC295147) | MIC 80% (ROB08702, Study LGC296813) | MIC 80% (ROB08702, Study LGC299544) | MIC 80% (ROB08702, Study LGC301026) | MIC 80% (ROB08702, Study LGC308175) | MIC 80% (ROB08702, Study ROC012) | MIC 80% (ROB08703, Study LGC293598) | MIC 80% (ROB08705, Study LGC282160) | MIC 100% (ROB08705, Study LGC284879)
32 µg/mL: MIC 100% (ROB08702, Study ROC010) | MIC 100% (ROB08704, Study LGC286210) | MIC 100% (ROB08704, Study LGC296813) | MIC 100% (ROB08704, Study LGC308175) | MIC 100% (ROB08704, Study ROC012) | MIC 100% (ROB08705, Study LGC282160)
8 µg/mL: MIC 100% (ROB08701, Study ROC012)
